Experimental data taken from patent publication US20170360761A1, “Selective Inhibition of HDAC6 and HDAC8, and Methods of Use Thereof” (Reaction Biology Corp., priority 2016, published 2017).

Key:
Format in all cases: cell-based
U266 cells = assay: MTS cell viability assay, U266 cells; settings: Homo sapiens, U-266, 72 hours incubation
Experimental: (§1) About 2000-5000 of U266 cells, REH cells, K562 cells, KMS-11 cells, RPMI-8226 cells and MM. 1S cells were incubated with RBC-2008 in 384 well assay plates at 37° C., 5% CO2 for 72 hours. An amount of 5 μl of CellTiter 96® AQueous One Solution Reagent (MTS assay reagent) from Promega was added to each well and incubated for 3 hours. Absorbance at 492 nm was recorded by Envision Multilabel Reader. The IC50 curves were plotted and the IC50 values were calculated using the GraphPad Prism 4 program based on sigmoidal dose-response equation. […] 1S cells respectively (FIG. 8).

RPMI-8226 cells = assay: MTS cell viability assay, RPMI-8226 cells; settings: Homo sapiens, 72 hours incubation
Experimental: as §1

MM. 1S cells = assay: MTS cell viability assay, MM. 1S cells; settings: Homo sapiens, MM1.S, 72 hours incubation
Experimental: as §1

KMS-11 cells = assay: MTS cell viability assay, KMS-11 cells; settings: Homo sapiens, 72 hours incubation
Experimental: as §1

REH cells = assay: MTS cell viability assay, REH cells; settings: Homo sapiens, 72 hours incubation
Experimental: as §1

K562 cells = assay: MTS cell viability assay, K562 cells; settings: Homo sapiens, 72 hours incubation
Experimental: The effects of RBC-2008 on the viability of human tumor cell were assessed in an MTS assay. K562 cells were incubated with RBC-2008 in 384 well assay plates at 37° C., 5% CO2 for 72 hours. 5 μl of CellTiter 96® AQueous One Solution Reagent (MTS assay reagent) from Promega was added to each well and incubated for 3 hours. Absorbance at 492 nm was recorded using an Envision Multilabel Reader. The IC50 curves were plotted and the IC50 values were calculated using the GraphPad Prism 4 program based on a sigmoidal dose-response equation (FIG. 5).
as §1

IC50 (U266 cells): 14.5 µM
IC50 (RPMI-8226 cells): 3.8 µM
IC50 (K562 cells): 13.1 µM
Structure (SMILES): O=C(NO)c1ccc(Cn2sc3ccccc3c2=O)cc1 [RBC-2008]
IC50 (MM. 1S cells): 2.1 µM
IC50 (KMS-11 cells): 2.5 µM
IC50 (REH cells): 1.8 µM
